From US9296723B2, “NAMPT inhibitors” (AbbVie Inc., priority 2012, dated 2016) come the findings set out here.

Assay [1] addresses T1, NAMPT (Homo sapiens, UniProt P43490). The assay can be described thus: TR-FRET Binding Assay of NAMPT with PRPP. The settings on record: 2 nM NAMPT, 2 nM probe, 200 µM PRPP and 2.5 mM ATP, equilibrated 16 hours. In a few lines:
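TR-FRET probe displacement with 2 nM NAMPT, 2 nM probe and 1 nM Tb-anti-His antibody in the presence of 200 µM PRPP and 2.5 mM ATP, 2% DMSO (all final). Equilibrated 16 hours before reading to permit possible enzymatic modification of compounds.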

In another assay the test system is PC3 cells. The assay can be described thus: NAMPT Cell Proliferation Assay (Cell Titer Glo). The settings on record: Homo sapiens, PC-3, 120 h, incubated 5 days, cell viability. The format is cell-based. Summed up:
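PC3 cells (500/well, RPMI with 10% heat-inactivated FBS) were exposed to 10-fold compound dilutions from […] for 5 days at 37 °C, 5% CO2. Viability was read with Cell Titer Glo; IC50 from sigmoidal fit of percent inhibition.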

Assay [2] has as its target T1, NAMPT. Put plainly: Time-Resolved Fluorescence Resonance Energy Transfer (TR-FRET) Binding Assay of NAMPT. Particulars: 6.8 nM NAMPT, 200 nM probe, equilibrated 3 hours, no substrates. Summed up: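 Compound was mixed with enzyme, probe and antibody and equilibrated 3 h at room temperature. TR-FRET read at Ex 337 nm, Em 520/495 nm. Ratios were normalized to controls and fitted to a four-parameter logistic equation for IC50.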

Structures are written as SMILES.

T1 sequence (P43490 whole entry): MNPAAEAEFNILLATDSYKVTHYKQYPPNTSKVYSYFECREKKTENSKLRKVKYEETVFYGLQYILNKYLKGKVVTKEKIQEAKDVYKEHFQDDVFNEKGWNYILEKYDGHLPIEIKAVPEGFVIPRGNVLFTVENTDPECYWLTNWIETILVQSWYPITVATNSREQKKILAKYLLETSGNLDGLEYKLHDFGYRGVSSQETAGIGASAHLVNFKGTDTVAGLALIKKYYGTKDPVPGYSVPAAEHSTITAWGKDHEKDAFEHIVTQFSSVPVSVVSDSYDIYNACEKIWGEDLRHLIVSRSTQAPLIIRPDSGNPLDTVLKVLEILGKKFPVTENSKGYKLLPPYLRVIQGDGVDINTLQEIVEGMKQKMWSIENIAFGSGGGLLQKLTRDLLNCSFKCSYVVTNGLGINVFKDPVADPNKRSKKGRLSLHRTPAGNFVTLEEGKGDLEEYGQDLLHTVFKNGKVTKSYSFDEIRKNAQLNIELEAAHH

For the compound `O=C(CC1CC2CCC1C2)N1CCC(Oc2ccc(NC(=O)N3CC(c4cccnc4)C3)cc2)C1` (stereo not drawn) [Example 299, N-(4-{[1-(bicyclo[2.2.1]hept-2-ylacetyl)pyrrolidin-3-yl]oxy}phenyl)-3-(pyridin-3-yl)azetidine-1-carboxamide], the IC50 (as a rule, the concentration needed to halve the response being measured) stood at 0.451 nM on NAMPT [1], 14.6 nM with PC3 cells and 64.9 nM on NAMPT [2].

For `O=C(CC1CCCC1)N1CC[C@@H](Oc2ccc(NC(=O)N3CC(c4cccnc4)C3)cc2)C1` [Example 300, N-(4-{[(3R)-1-(cyclopentylacetyl)pyrrolidin-3-yl]oxy}phenyl)-3-(pyridin-3-yl)azetidine-1-carboxamide], the figures for the IC50 at NAMPT [1], in the assay with PC3 cells and on NAMPT [2] were 0.341 nM, 17.1 nM and 52.6 nM, respectively.

`CC1CC1C(=O)N1CC[C@@H](Oc2ccc(NC(=O)N3CC(c4cccnc4)C3)cc2)C1` (stereo partly drawn) [Example 301, N-[4-({(3R)-1-[(2-methylcyclopropyl)carbonyl]pyrrolidin-3-yl}oxy)phenyl]-3-(pyridin-3-yl)azetidine-1-carboxamide]: the results for the IC50 on NAMPT [1], in the assay on PC3 cells and at NAMPT [2] were 0.243 nM, 21.9 nM and 59 nM, respectively.

On to `O=C(CN1CCOCC1)N1CC[C@@H](Oc2ccc(NC(=O)N3CC(c4cccnc4)C3)cc2)C1` [Example 302, N-(4-{[(3R)-1-(morpholin-4-ylacetyl)pyrrolidin-3-yl]oxy}phenyl)-3-(pyridin-3-yl)azetidine-1-carboxamide], for which the values for the 50% inhibitory concentration (IC50) at NAMPT [1], with PC3 cells and on NAMPT [2] were 0.393 nM, 141 nM and 337 nM, respectively.

For the compound `O=C(Nc1ccc(O[C@@H]2CCN(C(=O)c3ccoc3)C2)cc1)N1CC(c2cccnc2)C1` [Example 303, N-(4-{[(3R)-1-(furan-3-ylcarbonyl)pyrrolidin-3-yl]oxy}phenyl)-3-(pyridin-3-yl)azetidine-1-carboxamide], the concentration for half-maximal inhibition (IC50) at NAMPT [1] worked out at 0.595 nM; in the assay on PC3 cells, 13.5 nM; at NAMPT [2], 40.5 nM.

Turning to `O=C(CN1CCCC1)N1CC[C@@H](Oc2ccc(NC(=O)N3CC(c4cccnc4)C3)cc2)C1` [Example 304, 3-(pyridin-3-yl)-N-(4-{[(3R)-1-(pyrrolidin-1-ylacetyl)pyrrolidin-3-yl]oxy}phenyl)azetidine-1-carboxamide], the IC50 worked out at 0.343 nM at NAMPT [1], 262 nM with PC3 cells and 594 nM on NAMPT [2].

Regarding `O=C1CC[C@H](C(=O)N2CC[C@@H](Oc3ccc(NC(=O)N4CC(c5cccnc5)C4)cc3)C2)N1` [Example 305, N-(4-{[(3R)-1-(5-oxo-D-prolyl)pyrrolidin-3-yl]oxy}phenyl)-3-(pyridin-3-yl)azetidine-1-carboxamide], the figures for the IC50 on NAMPT [1], with PC3 cells and on NAMPT [2] were 0.211 nM, 1820 nM and 435 nM, respectively.

Take `O=C(Nc1ccc(O[C@@H]2CCN(C(=O)c3nccs3)C2)cc1)N1CC(c2cccnc2)C1` [Example 307, 3-(pyridin-3-yl)-N-(4-{[(3R)-1-(1,3-thiazol-2-ylcarbonyl)pyrrolidin-3-yl]oxy}phenyl)azetidine-1-carboxamide]: the IC50 is 0.197 nM at NAMPT [1], 9.87 nM in the assay on PC3 cells and 24.3 nM on NAMPT [2].

Consider `O=C(Nc1ccc(O[C@@H]2CCN(C(=O)c3ccsc3)C2)cc1)N1CC(c2cccnc2)C1` [Example 308, 3-(pyridin-3-yl)-N-(4-{[(3R)-1-(thiophen-3-ylcarbonyl)pyrrolidin-3-yl]oxy}phenyl)azetidine-1-carboxamide], for which the values for the IC50 on NAMPT [1], in the assay with PC3 cells and on NAMPT [2] were 0.293 nM, 9.61 nM and 24.2 nM, respectively.

As to `CC1(C(=O)N2CC[C@@H](Oc3ccc(NC(=O)N4CC(c5cccnc5)C4)cc3)C2)CC1` [Example 309, N-[4-({(3R)-1-[(1-methylcyclopropyl)carbonyl]pyrrolidin-3-yl}oxy)phenyl]-3-(pyridin-3-yl)azetidine-1-carboxamide], the values for the IC50 at NAMPT [1], in the assay on PC3 cells and at NAMPT [2] were 0.262 nM, 11.1 nM and 32.8 nM, respectively.

In the case of `Cc1ccsc1C(=O)N1CC[C@@H](Oc2ccc(NC(=O)N3CC(c4cccnc4)C3)cc2)C1` [Example 310, N-[4-({(3R)-1-[(3-methylthiophen-2-yl)carbonyl]pyrrolidin-3-yl]oxy}phenyl)-3-(pyridin-3-yl)azetidine-1-carboxamide], the IC50 came out at 0.297 nM at NAMPT [1], 2.76 nM in the assay with PC3 cells and 4.54 nM on NAMPT [2].

Regarding `O=C(CCC(F)(F)F)N1CC[C@@H](Oc2ccc(NC(=O)N3CC(c4cccnc4)C3)cc2)C1` [Example 311, 3-(pyridin-3-yl)-N-(4-{[(3R)-1-(4,4,4-trifluorobutanoyl)pyrrolidin-3-yl]oxy}phenyl)azetidine-1-carboxamide], the IC50 amounted to 0.592 nM on NAMPT [1], 47.1 nM in the assay on PC3 cells and 144 nM at NAMPT [2].

Regarding `CN1CCN(CC(=O)N2CC[C@@H](Oc3ccc(NC(=O)N4CC(c5cccnc5)C4)cc3)C2)CC1` [Example 312, N-[4-({(3R)-1-[(4-methylpiperazin-1-yl)acetyl]pyrrolidin-3-yl}oxy)phenyl]-3-(pyridin-3-yl)azetidine-1-carboxamide], the IC50 was 0.29 nM on NAMPT [1], 211 nM with PC3 cells and 311 nM at NAMPT [2].

In the case of `O=C1CC[C@@H](C(=O)N2CC[C@@H](Oc3ccc(NC(=O)N4CC(c5cccnc5)C4)cc3)C2)N1` [Example 313, N-(4-{[(3R)-1-(5-oxo-L-prolyl)pyrrolidin-3-yl]oxy}phenyl)-3-(pyridin-3-yl)azetidine-1-carboxamide], the values for the IC50 on NAMPT [1], in the assay with PC3 cells and on NAMPT [2] were 0.187 nM, 4590 nM and 369 nM, respectively.

For `CCOCCC(=O)N1CC[C@@H](Oc2ccc(NC(=O)N3CC(c4cccnc4)C3)cc2)C1` [Example 314, N-(4-{[(3R)-1-(3-ethoxypropanoyl)pyrrolidin-3-yl]oxy}phenyl)-3-(pyridin-3-yl)azetidine-1-carboxamide], the concentration for half-maximal inhibition (IC50) is 0.178 nM on NAMPT [1], 83.9 nM with PC3 cells and 110 nM on NAMPT [2].

For the compound `O=C(CC1CCCCC1)N1CC[C@@H](Oc2ccc(NC(=O)N3CC(c4cccnc4)C3)cc2)C1` [Example 317, N-(4-{[(3R)-1-(cyclohexylacetyl)pyrrolidin-3-yl]oxy}phenyl)-3-(pyridin-3-yl)azetidine-1-carboxamide], the IC50 on NAMPT [1] worked out at 0.207 nM; in the assay with PC3 cells, 55.4 nM; on NAMPT [2], 29.9 nM.

`CC(=O)N[C@@H](CC(C)C)C(=O)N1CC[C@@H](Oc2ccc(NC(=O)N3CC(c4cccnc4)C3)cc2)C1` [Example 318, N-(4-{[(3R)-1-(N-acetyl-L-leucyl)pyrrolidin-3-yl]oxy}phenyl)-3-(pyridin-3-yl)azetidine-1-carboxamide]: the IC50 was 0.419 nM on NAMPT [1], 156 nM with PC3 cells and 125 nM on NAMPT [2].

In the case of `CCC(=O)N1CC[C@@H](Oc2ccc(NC(=O)N3CC(c4cccnc4)C3)cc2)C1` [Example 319, N-(4-{[(3R)-1-propanoylpyrrolidin-3-yl]oxy}phenyl)-3-(pyridin-3-yl)azetidine-1-carboxamide], the concentration for half-maximal inhibition (IC50) on NAMPT [1] stood at 0.426 nM; in the assay with PC3 cells, 30.7 nM; on NAMPT [2] it was 70.6 nM.

With `COCCOCC(=O)N1CC[C@@H](Oc2ccc(NC(=O)N3CC(c4cccnc4)C3)cc2)C1` [Example 320, N-[4-({(3R)-1-[(2-methoxyethoxy)acetyl]pyrrolidin-3-yl}oxy)phenyl]-3-(pyridin-3-yl)azetidine-1-carboxamide], the IC50 was determined as 0.407 nM on NAMPT [1], 155 nM in the assay on PC3 cells and 208 nM on NAMPT [2].

For the compound `O=C(CCN1CCOCC1)N1CC[C@@H](Oc2ccc(NC(=O)N3CC(c4cccnc4)C3)cc2)C1` [Example 321, N-[4-({(3R)-1-[3-(morpholin-4-yl)propanoyl]pyrrolidin-3-yl}oxy)phenyl]-3-(pyridin-3-yl)azetidine-1-carboxamide], the half-maximal inhibitory concentration (IC50) at NAMPT [1] was determined as 0.246 nM; in the assay on PC3 cells it was 119 nM; on NAMPT [2], 176 nM.

Turning to `Cc1ccc(C(=O)N2CC[C@@H](Oc3ccc(NC(=O)N4CC(c5cccnc5)C4)cc3)C2)s1` [Example 323, N-[4-({(3R)-1-[(5-methylthiophen-2-yl)carbonyl]pyrrolidin-3-yl}oxy)phenyl]-3-(pyridin-3-yl)azetidine-1-carboxamide], the IC50 worked out at 0.194 nM at NAMPT [1], 51 nM in the assay with PC3 cells and 41.4 nM on NAMPT [2].

Take `O=C(Nc1ccc(O[C@@H]2CCN(C(=O)c3cccs3)C2)cc1)N1CC(c2cccnc2)C1` [Example 324, 3-(pyridin-3-yl)-N-(4-{[(3R)-1-(thiophen-2-ylcarbonyl)pyrrolidin-3-yl]oxy}phenyl)azetidine-1-carboxamide]: the IC50 at NAMPT [1] was determined as 0.36 nM; in the assay with PC3 cells, 6.24 nM; at NAMPT [2], 20.7 nM.

In the case of `Cn1cccc1C(=O)N1CC[C@@H](Oc2ccc(NC(=O)N3CC(c4cccnc4)C3)cc2)C1` [Example 325, N-[4-({(3R)-1-[(1-methyl-1H-pyrrol-2-yl)carbonyl]pyrrolidin-3-yl}oxy)phenyl]-3-(pyridin-3-yl)azetidine-1-carboxamide], the half-inhibitory concentration (IC50) on NAMPT [1] was found to be 0.362 nM; in the assay with PC3 cells it was 11.3 nM; at NAMPT [2], 18.8 nM.

As to `O=C(Nc1ccc(O[C@@H]2CCN(C(=O)c3ccco3)C2)cc1)N1CC(c2cccnc2)C1` [Example 326, N-(4-{[(3R)-1-(furan-2-ylcarbonyl)pyrrolidin-3-yl]oxy}phenyl)-3-(pyridin-3-yl)azetidine-1-carboxamide], the values for the IC50 on NAMPT [1], with PC3 cells and on NAMPT [2] were 0.294 nM, 16.5 nM and 32.2 nM, respectively.
